What was measured:
ICR mice = assay: Acute toxicity test, tail vein administration; type: in vivo; details: male ICR mice, 24 hours
Description: Male ICR mice aged 7 weeks (SLC) were divided into several groups consisting of 5 mice. […] The solution was administered through the tail vein at an infusion rate of 1 mL/minute. Observations were performed at constant interval, and the survival rate was judged for 24 hours.

db/db mice [1] = assay: Inhibitory effect on development of diabetic nephropathy in db/db mice (urine albumin/creatinine ratio); type: in vivo; details: 100 mg/kg orally twice a day for 10 weeks
Description: Six weeks old male db/db mice (20 individuals) and non-diabetic type db/+m mice (10 individuals) were used. db/db Mice were divided into two groups (each 10 individuals), a test compound suspended in a 0.5% methylcellulose solution was orally administrated at 100 mg/kg to one group (test compound group) twice a day. On the other hand, a 0.5% methylcellulose solution alone was orally administrated to another group (control group) and db/+m mice twice a day. After continuing administration for 10 weeks, urine collection was performed for each mouse using a metabolism cage for 24 hours. Insoluble substances in collected urine samples were removed by centrifugal separation. The urine albumin/creatinine ratio which can be obtained by rectifying the urine albumin concentration by the urine creatinine concentration was evaluated as the index of the urine protein excretion. In addition, the urine albumin/creatinine ratio was calculated based on the formula below. Urine albumin/creatinine ratio=Urine albumin concentration/Urine creatinine concentration Urine albumin concentration was measured using a Murine Microalbuminurea ELISA Kit (Exocell Icc.), and urine creatinine concentration was measured using a commercial kit for creatinine (Wako). […] In addition, it is shown that * in the Table has a significant difference (p<0.05) compared with control group.

db/db mice [2] = assay: Inhibitory effect on hypercoagulable state in db/db mice (plasma TAT level); type: in vivo; details: 100 mg/kg orally, one hour after administration
Description: Thirty two weeks old male db/db mice (11 individuals) and wild type +m/+m mice (6 individuals) were used. db/db Mice were divided into two groups, a 0.5% methylcellulose solution containing a test compound at 100 mg/kg was orally administrated to one group (test compound group, 6 individuals). On the other hand, a 0.5% methylcellulose solution alone was orally administrated to another group (control group, 5 individuals) and +m/+m mice. One hour after administration, mice were anesthetized with diethyl ether. […] Plasma thrombin-antithrombin III complex (TAT) level was measured using an EIA (enzyme immunoassay) kit (Dade behring). […] In addition, it is shown that * in the Table has a significant difference (p<0.05) compared with control group.

[3] = tested on: Normal human mesangial cells; assay: Inhibitory effect on human FXa-induced human mesangial cell proliferation (DNA amount by fluorescence); type: cell-based; details: for Fluorescence intensity: FXa 20 nM, 111 hours culture
Description: Normal human mesangial cells were seeded at 10000 cells/200 μL of Mesangial cell growth medium/well in 96-well plates, and cultured in CO2 incubator (37° C., O2:CO2=95:5). One day after seeding, cells were rinsed with Mesangial cell basal medium containing 0.5% bovine serum albumin (not containing growth factors), and then replaced the medium with Mesangial cell basal medium containing 0.5% bovine serum albumin (not containing growth factors) which was containing human activated coagulation factor X (hereinafter referred to as FXa; Calbiochem) and a test compound of certain concentrations, and cultured for 111 hours in CO2 incubator (37° C., O2:CO2=95:5). After cultivation, cells were rinsed with Hank's balanced salt solution at 250 μL/well, and frozen preservation of the cells at −30° C. was carried out until the measurement of the amount of DNAs for every plate. For measurement of the amount of DNAs, fluorescence intensity (measurement condition: excitation 480 nm; emission 520 nm) was estimated using Cell Proliferation Assay Kit (Molecular Probe). […] In addition, it is shown that * in the Table has a significant difference (p<0.05) compared with the group which was added FXa alone.

SMILES	Number of death (ICR mice; Method A: 50 mg/10 mL/kg)	Number of death (ICR mice; Method B: 100 mg/10 mL/kg)	Inhibition of urine albumin excretion (in words) (db/db mice [1])	Urine albumin/creatinine ratio (db/db mice [1]; 24 hours urine, * p<0.05 vs control group (0.386))	Effect on plasma TAT level / hypercoagulable state (in words) (db/db mice [2])	Plasma thrombin-antithrombin III complex level (db/db mice [2]; * p<0.05 vs control group (69.25))	Inhibition of human FXa-induced mesangial cell proliferation (in words) ([3]; FXa-induced human mesangial cells)	Fluorescence intensity ([3]; test compound 1 μM, FXa alone 227.0, no FXa 186.8)	Fluorescence intensity ([3]; test compound 10 μM, * p<0.05 vs FXa alone (227.0))
CS(=O)(=O)c1ccccc1-c1ccc(CCNS(=O)(=O)c2cc(C(=N)NO)ccc2O)c(OCC(=O)O)c1 [Compound 47, [4-[2-[2-Hydroxy-5-(N-hydroxycarbamimidoyl)benzenesulfonylamino]ethyl]-2′-methanesulfonylbiphenyl-3-yloxy]acetic acid]	0/5	0/5	–	–	–	–	–	–	–
CCCCOC(=O)COc1cc(-c2ccccc2S(C)(=O)=O)ccc1CCNS(=O)(=O)c1cc(C(=N)NO)ccc1O.Cl [Compound 48, n-Butyl [4-[2-[2-Hydroxy-5-(N-hydroxycarbamimidoyl)-benzenesulfonylamino]ethyl]-2′-methanesulfonylbiphenyl-3-yloxy]acetate hydrochloride]	–	–	inhibited urine albumin excretion significantly	0.202*	decreased plasma TAT level significantly	8.31*	–	–	–
CS(=O)(=O)c1ccccc1-c1ccc(CCNS(=O)(=O)c2cc(C(=N)N)ccc2O)c(OCC(=O)O)c1.Cl [Compound 33, [4-[2-(5-Carbamimidoyl-2-hydroxybenzenesulfonylamino)-ethyl]-2′-methanesulfonoylbiphenyl-3-yloxy]acetic acidhydrochloride]	–	0/5	–	–	–	–	inhibited human FXa-induced mesangial cell proliferation concentration-dependently	206.2	178.3*

— US7563822B2, “Agents for the prevention or treatment of renal diseases” (Kissei Pharmaceutical Co., Ltd., priority 2002, dated 2009)
